Measurements reported in patent US4533553A, “Polycyclic ether antibiotic” (priority 1983, dated 1985).

Tests used:
[1] = test system: rumen fluid; assay: in vitro rumen technique, propionic acid production; set-up: species or system cow; conditions: for increase in propionic acid: comparison with Salinomycin
Experimental: The value of animal feeds generally has been determined directly by feeding the animal. British Patent Specification No. 1,197,826 details an in vitro rumen technique whereby the changes occurring in feeds brought about by microorganisms are measured more readily and with great accuracy in the evaluation of animal feeds. This technique involves the use of an apparatus in which the digestive processes of the animals are conducted and studied in vitro. The animal feeds, rumen inoculum and various growth promotants are introduced into and withdrawn from a laboratory unit under carefully controlled conditions and the changes taken place are studied critically and progressively during the consumption of the feed by the microorganisms. […] The change in propionic acid content is expressed as percent of the propionic acid content found in the control rumen fluid. Long term in vivo feeding studies are used to show a reliable correlation between propionic acid increase in the rumen fluid and improved animal performance.
Rumen fluid is collected from a fistulated cow which is fed on a commercial fattening ration plus hay. The rumen fluid is immediately filtered through cheese cloth, and 10 ml added to a 50 ml conical flask containing 400 mg. of standard substrate (68% corn starch+17% cellulose+15% extracted soybean meal), 10 ml. of a pH 6.8 buffer and the test compound. The flasks are gassed with oxygen free nitrogen for about two minutes, and incubated in a shaking water bath at 39° C. for about 16 hours. All tests are conducted in triplicate.
After incubation, 5 ml. of the sample is mixed with 1 ml. of 25% metaphosphoric acid. After 10 minutes 0.25 ml. of formic acid is added and the mixture centrifuged at 1,500 r.p.m. for 10 minutes. Samples are then analyzed by gas-liquid chromatograhy by the method of D. W. Kellog, J. Dairy Science, 52, 1690 (1969). Peak heights for acetic, propionic and butyric acids are determined for samples from untreated and treated incubation flasks.

[2] = solubility; type: physicochemical
[3] = test system: Gram-positive microorganisms; assay: inhibitory action against growth of Gram-positive microorganisms; type: cell-based; conditions: in vitro
Experimental: (§1) In Table I, below, the results of in vitro MIC tests are summarized. For this test each organism is inoculated in a series of test tubes containing nutrient medium and varying concentrations of Compound 53,607 to determine the minimal concentration of the antibiotic in mcg/ml which inhibits the growth of the organism over a period of 24 hours (MIC).

[4] = test system: Eimeria necatrix; assay: efficacy against coccidial infections in chickens; type: in vivo; conditions: for Average degree of Infection: lesion score 0 to 3; for Average degree of Infection / Weight Gain: six days; for Ratio: lesion score treated / infected control
Experimental: (§2) Efficacy data for Antibiotic Compound 53,607 and its salts against coccidial infections in chickens was obtained in the following fashion. Groups of 3-5 ten-day old SPF white leghorn cockerel chicks were fed a mash diet containing Antibiotic Compound 53,607 or its sodium and/or potassium salt uniformly dispersed therein. After being on this ration for 24 hours each chick was inoculated per os with oocysts of the particular species of Eimeria being tested. Other groups of 3-5 ten-day old chicks were fed a similar mash diet free of Antibiotic Compound 53,607 or its salts. They were also infected after 24 hours and served as infected controls. Yet other groups of 3-5 ten-day old chicks were fed the mash diet free of Antibiotic Compound 53,607 and were not infected with coccidia. These served as normal controls. The results of treatment were evaluated after five days in the case of E. acervulina, and six days for all other challenges.
(§3) ^1 The criteria used to measure anticoccidial activity consisted of
(§4) lesion scores of 0 to 4 for E. tenella after J. E. Lynch "A New Method fo
(§5) the Primary Evaluation of Anticoccidial Activity." , Am. J. Vet. Res.
(§6) 22:324-326 (1961); and 0 to 3 for the other species based on modification
(§7) of the scoring system devised by J. Johnson and W. H. Reid, "Anticoccidia
(§8) drugs. Lesion Scoring Techniques in Battery and Floor Pen Experiments in
(§9) Chicks.", Exp. Parasit. 28: 30-36(1970). A constant ratio was established
(§10) by dividing the lesion score of each treated group by the lesion score of […]

[5] = test system: Eimeria maxima; assay: efficacy against coccidial infections in chickens; type: in vivo; conditions: for Average degree of Infection: lesion score 0 to 3; for Average degree of Infection / Weight Gain: six days; for Ratio: lesion score treated / infected control
Experimental: as §2, §3, §4, §5, §6, §7, §8, §9, §10

[6] = test system: Eimeria acervulina; assay: efficacy against coccidial infections in chickens; type: in vivo; conditions: for Weight Gain / Average degree of Infection: five days; for Average degree of Infection: lesion score 0 to 3; for Ratio: lesion score treated / infected control
Experimental: as §2, §3, §4, §5, §6, §7, §8, §9, §10

[7] = test system: Eimeria tenella; assay: efficacy against coccidial infections in chickens; type: in vivo; conditions: for Average degree of Infection: lesion score 0 to 4
Experimental: as §2, §3, §4, §5, §6, §7, §8, §9, §10

[8] = test system: Eimeria brunetti; assay: efficacy against coccidial infections in chickens; type: in vivo; conditions: for Average degree of Infection: lesion score 0 to 3; for Average degree of Infection / Weight Gain: six days; for Ratio: lesion score treated / infected control
Experimental: as §2, §3, §4, §5, §6, §7, §8, §9, §10

[9] = test system: Enterobacteriacese aerogenes; assay: in vitro MIC test; type: cell-based; conditions: 24 h
Experimental: as §1

[10] = test system: Escherischia coli; assay: in vitro MIC test; type: cell-based; conditions: 24 h
Experimental: as §1

[11] = test system: Klebsiella pneumoniae; assay: in vitro MIC test; type: cell-based; conditions: 24 h
Experimental: as §1

[12] = test system: Pseudomonas aeruginosa; assay: in vitro MIC test; type: cell-based; conditions: 24 h
Experimental: as §1

[13] = test system: Serratia marcescens; assay: in vitro MIC test; type: cell-based; conditions: 24 h
Experimental: as §1

[14] = test system: coccidial infections in poultry; assay: activity against coccidial infections in poultry; type: in vivo
Experimental: as §2

[15] = 25 ppm in diet, value in parentheses (not explained)
[16] = 50 ppm in diet, value in parentheses (not explained)
[17] = 100 ppm in diet, value in parentheses (not explained)

With `CC[C@@H](C(=O)[C@@H](C)[C@@H](O)[C@H](C)[C@@H]1O[C@@H]([C@@H](CC)C(=O)O)CC[C@@H]1C)[C@H]1O[C@]2(C=C[C@@H](O)[C@]3(CC[C@@](C)([C@H]4CC[C@](O)(CC)[C@H](C)O4)O3)O2)[C@H](C)C[C@@H]1C` [Salinomycin, reference compound] the “increase in propionic acid” value ([1]; 5 μg./ml.) was “about 52%”.

With `CC(=CC(C)C1OC2(CCC(C)(C3CCC(C)C4(OC(C5OC(O)(CO)C(C)CC5C)CC4C)O3)O2)CC(O)C1C)C(=O)C(C)CC(C)C(=O)O` (stereo not drawn) [Antibiotic Compound 53,607] the solubility in chloroform ([2]; chloroform) was “soluble”, the “solubility in ethyl acetate” value ([2]; ethyl acetate) was “soluble” and the solubility in methanol ([2]; methanol) was “soluble”. The “solubility in methylisobutyl ketone” value ([2]; methylisobutyl ketone) was “soluble”, the solubility in water ([2]; water) was “insoluble” and the “inhibitory action against growth” value [3] was “exhibits inhibitory action”. For the same compound, the “Average degree of Infection” value ([4]; 25 ppm in diet) was 0.6, the Ratio ([4]; 25 ppm in diet) was 0.33 and the “Weight Gain” value ([4]; 25 ppm in diet) was 111%. For the same compound, the “Average degree of Infection” value ([4]; 50 ppm in diet) was 0.2, the Ratio ([4]; 50 ppm in diet) was 0.11 and the “Weight Gain” value ([4]; 50 ppm in diet) was 99%. The “Average degree of Infection” value ([4]; 100 ppm in diet) was 0.0, the Ratio ([4]; 100 ppm in diet) was 0.00 and the “Weight Gain” value ([4]; 100 ppm in diet) was 69%. For the same compound, the controlling infections ([4]; chickens, diet, 50 to 200 ppm) was “effective in controlling infections”, the “Average degree of Infection” value ([5]; 25 ppm in diet) was 1.4 and the Ratio ([5]; 25 ppm in diet) was 0.88. The “Weight Gain” value ([5]; 25 ppm in diet) was 51%, the “Average degree of Infection” value ([5]; 50 ppm in diet) was 1.0 and the Ratio ([5]; 50 ppm in diet) was 0.63. The “Weight Gain” value ([5]; 50 ppm in diet) was 70%, the “Average degree of Infection” value ([5]; 100 ppm in diet) was 0.8 and the Ratio ([5]; 100 ppm in diet) was 0.50. For the same compound, the “Weight Gain” value ([5]; 100 ppm in diet) was 37%, the “Average degree of Infection” value ([5]; 200 ppm in diet) was 1.5 and the Ratio ([5]; 200 ppm in diet) was 0.94. The “Weight Gain” value ([5]; 200 ppm in diet) was 10%, the controlling infections ([5]; chickens, diet, 50 to 200 ppm) was “effective in controlling infections” and the “Weight Gain” value ([6]; 25 ppm in diet) was 7%. For the same compound, the “Average degree of Infection” value ([6]; 25 ppm in diet) was 2.0, the Ratio ([6]; 25 ppm in diet) was 1.00 and the “Weight Gain” value ([6]; 50 ppm in diet) was 18%. For the same compound, the “Average degree of Infection” value ([6]; 50 ppm in diet) was 2.0, the Ratio ([6]; 50 ppm in diet) was 1.00 and the “Weight Gain” value ([6]; 100 ppm in diet) was 22%. The “Average degree of Infection” value ([6]; 100 ppm in diet) was 1.2, the Ratio ([6]; 100 ppm in diet) was 0.60 and the “Weight Gain” value ([6]; 200 ppm in diet) was 2%. The “Average degree of Infection” value ([6]; 200 ppm in diet) was 1.5, the Ratio ([6]; 200 ppm in diet) was 0.75 and the controlling infections ([6]; chickens, diet, 50 to 200 ppm) was “effective in controlling infections”. For the same compound, the “Average degree of Infection” value ([7]; 25 ppm in diet, six days) was 3.0, the Ratio ([7]; 25 ppm in diet, lesion score treated / infected control) was 0.95 and the “Weight Gain” value ([7]; 25 ppm in diet, six days) was 47%. The Ratio [7, 15] was 0.49, the “Weight Gain” value [7, 15] was 102% and the “Average degree of Infection” value [7, 15] was 1.7. The “Average degree of Infection” value ([7]; 50 ppm in diet, six days) was 2.7, the Ratio ([7]; 50 ppm in diet, lesion score treated / infected control) was 0.86 and the “Weight Gain” value ([7]; 50 ppm in diet, six days) was 22%. The Ratio [7, 16] was 0.09, the “Weight Gain” value [7, 16] was 97% and the “Average degree of Infection” value [7, 16] was 0.3. The “Average degree of Infection” value ([7]; 100 ppm in diet, six days) was 1.0, the Ratio ([7]; 100 ppm in diet, lesion score treated / infected control) was 0.32 and the “Weight Gain” value ([7]; 100 ppm in diet, six days) was 57%. The Ratio [7, 17] was 0.37, the “Weight Gain” value [7, 17] was 60% and the “Average degree of Infection” value [7, 17] was 1.3. The “Average degree of Infection” value ([7]; 200 ppm in diet, six days) was 1.3, the Ratio ([7]; 200 ppm in diet, lesion score treated / infected control) was 0.41 and the “Weight Gain” value ([7]; 200 ppm in diet, six days) was 37%. The controlling infections ([7]; chickens, diet, 50 to 200 ppm) was “effective in controlling infections”, the “Average degree of Infection” value ([8]; 25 ppm in diet) was 2.6 and the Ratio ([8]; 25 ppm in diet) was 1.44. For the same compound, the “Weight Gain” value ([8]; 25 ppm in diet) was 47%, the “Average degree of Infection” value ([8]; 50 ppm in diet) was 1.0 and the Ratio ([8]; 50 ppm in diet) was 0.55. For the same compound, the “Weight Gain” value ([8]; 50 ppm in diet) was 49%, the “Average degree of Infection” value ([8]; 100 ppm in diet) was 0.4 and the Ratio ([8]; 100 ppm in diet) was 0.22. For the same compound, the “Weight Gain” value ([8]; 100 ppm in diet) was 47%, the controlling infections ([8]; chickens, diet, 50 to 200 ppm) was “effective in controlling infections” and the MIC [9] was over 50 µg/mL. For the same compound, the MIC [10] was over 50 µg/mL, the MIC [11] was over 50 µg/mL and the MIC [12] was over 50 µg/mL. For the same compound, the MIC [13] was over 50 µg/mL, the “activity against coccidial infections in poultry” value [14] was “excellent activity” and the “increase in propionic acid” value ([1]; 5 μg./ml.) was “about 40%”. The “increase in propionic acid” value ([1]; 20 μg./ml.) was “about 43%” and the “increase in the production of propionic acid over control” value ([1]; 20 micrograms per milliliter, first comparison (with Monensin)) was “about 57%”.
